Experimental data as given in a compilation of properties of binary mixtures (doi:10.1016/j.molliq.2022.119758).

Test: xn = mol fraction of the nth substance listed
Settings: 101 kPa

CCC[N+]1(C)CCCC1.O=S(=O)([N-]S(=O)(=O)C(F)(F)F)C(F)(F)F + O=C1CCCO1
viscosity [mPa·s]
Settings	278.15 K	288.15 K	298.15 K	308.15 K	318.15 K	328.15 K	338.15 K	348.15 K	358.15 K
x1 = 0.0657	–	3.14	2.65	2.296	1.951	1.694	–	1.328	1.191
x1 = 0.1741	6.97	–	4.45	3.67	3.08	–	–	–	–
x1 = 0.3874	16.24	11.87	9.04	7.09	5.71	4.7	3.95	3.37	2.92
x1 = 1	–	96.2	60.6	40.8	28.9	21.3	16.29	12.82	–

O=C1CCCO1 + CCC[N+]1(C)CCCC1.O=S(=O)([N-]S(=O)(=O)C(F)(F)F)C(F)(F)F
x2 = 0
Settings	viscosity [mPa·s]
278.15 K	2.56
298.15 K	1.859
308.15 K	1.641
328.15 K	1.242
338.15 K	1.106
358.15 K	0.894
